Source: patent US10975116B2, “Methods of treating and preventing gastrointestinal motility disorders using aminosterols” (Enterin, Inc., priority 2013, dated 2021)
“Also recorded” adds a separate entry of the source. Where two headings read alike, the source gives them in different places.

Key:
[1] = Recovery of squalamine from stool after oral dose (thin layer chromatography); format: in vivo, human; details: 200 mg oral; all stool collected for 6 days; 60% acetonitrile/1% HCl extraction
Procedure: 200 mg of squalamine was administered to a human […] as in the first example. All stool was collected for 6 days following administration. Stool was then extracted with 60% acetonitrile and 1% HCl overnight. The supernatant was collected and the presence of squalamine assessed by thin layer chromatography following published procedures. Approximately 80% of the dose could be recovered from the stool.

mesenteric nerve = assay: Mesenteric nerve multiunit recording after intraluminal squalamine in colon; format: in vivo, mouse
Text: Under appropriate and approved anesthesia, the distal colon of a mouse was externalized from the abdomen, along with the mesentary. The mesenteric blood vessels and lymphatics were carefully dissected from the mesenteric nerve, a structure that contains both the vagus (efferent and afferent) and spinal afferents. The nerve was cut, and the free end (which receives signals from the gut) was introduced into a capillary housing a silver electrode, along with the appropriate electronics required to detect and amplify weak electrical signals pulsing from the gut through the mesenteric nerve. […] Concentrations of 3, 10, 30 and 100 μM squalamine were evaluated. Responses to squalamine application were discernible at 30 μM but robust and reproducible responses were first evident at 100 μM. […] Paired experiments were comparisons of average discharge rates of a control recording period with a three-minute period during the peak response to squalamine. Statistical comparisons were made using paired t-tests. Squalamine increased the background firing rate from (mean±SD) 2.0±1.2 to 5.2±3.1 Hz (P=0.03). The latency to the onset of the firing increase was 4.4±4.1 min, while the latency to peak of the firing rate increase 12±7.5 min (FIG. 1).

[2] = system: Opioid induced constipation; assay: Oral squalamine in opioid (codeine) induced constipation, single subject; format: in vivo, human
Procedure: A normal subject began dosing with 1 tab codeine 30 mg/acetaminophen 300 mg at 8 A on Day 1, and repeated on Day 2 and Day 3. Normal bowel movement frequency was 1 or more stools/day, normally formed. Prior to codeine on Day 1, subject passed a normal stool in the AM. No bowel movements from the start of dosing through the 8 A Day 3 dose. No cramping; some gas. Some sense of fullness on the evening of Day 2.
At 9:15 A subject was administered 200 mg cap of squalamine. […] No nausea. […] A second smaller stool was passed at 12:30. […] The rapid effect on colonic motility seems unlikely to have been a direct effect of squalamine on the colon, but perhaps a downstream consequence of enteric nervous system stimulation. On Day 4, 30 mg codeine. No squalamine dosing. 7 P passed a loose stool of normal volume.

[3] = cited from earlier work; for oral bioavailability: animals (rodents; mice and dogs)
[4] = system: Irritable Bowel Syndrome (IBS); assay: Oral squalamine in Irritable Bowel Syndrome, single subject; format: in vivo, human
Text: A person, in otherwise good health, was suffering from the “mixed” form of IBS since early childhood. The condition was characterized by a failure to feel “cleared” after the passage of a stool; occasional crampiness; abdominal bloating and a sense of “fullness.” The condition caused them to be “conscious of their bowels” throughout the day, and frequently interrupted their sleep. Attempts to relieve themself on the toilet would generally be ineffective, leaving them with the feeling of “still having to go.”
On day 1 the individual was administered a single 200 mg capsule of squalamine, orally, on an empty stomach with water. Within 2 hrs they experienced nausea, at 3 hrs they vomited, followed soon after by the passage of about 200 ml of clear discharge rectally. By 3.5 hrs the nausea had passed. They ate normally at lunch and dinner. […] Slept better than they had in many years. The first stool was passed on Day 4, was soft and passed easily, and then successively on Days 5, 6, 7, and 8. Beginning at Day 6, they began to experience the prior GI symptoms. By Day 8, their usual GI symptoms had returned.
A second dosing trial was begun on Day 15, with a 50 mg capsule administered. […] Bowel movement was passed on Day 17. A 25 mg capsule was administered on Day 19. […] It was assumed that 50 mg dosed every other day was an optimum regimen. The individual remained on a dosing schedule of 50 mg orally every other day.

[5] = system: mucinous adenocarcinoma (Stage 4b colon cancer); assay: Oral squalamine in Stage 4b colon cancer, single subject; format: in vivo, human
Procedure: A person presented with abdominal distention, pain, and progressive weight loss of several months duration.
The individual was begun on a total daily dose of 50 mg of squalamine, administered as 25 mg twice daily, as a powder dispersed in apple sauce. Approximately 6 months after initiation of squalamine treatment the individual was seen again at the hospital due to the chance recognition of a mass on their right kidney. The kidney was surgically removed, and during the procedure the peritoneum explored. […] The mass on the kidney was a benign cyst. Treatment with squalamine continued daily for 5 years. […] The subject died […] of a myocardial infarction.

[6] = system: colon migrating motor complex (MMC); assay: Colonic motility and intraluminal pressure in excised colon segment; set-up: species or system mouse; details: squalamine added to the colonic lumen
Procedure: A segment of colon was excised from a mouse, and one end was attached to a glass tube housing a pressure sensor. A video camera recorded the visible contractions of the segment. When squalamine was added to the colonic lumen, the frequency of contractions increased about 2 fold, representing coordinated peristaltic waves that move toward the rectum.

[7] = system: intrinsic primary afferent neurons (IPANs) of the colon; assay: Patch-clamp of IPANs of the colon, epithelial lining peeled away; format: cell-based, mouse
Procedure: In this Example the same procedure as that described in Example 12 was followed except that the epithelial lining of the colon was peeled away prior to application of squalamine to the lumen. Signals from individual IPANs were recorded. Concentrations of squalamine as low as 1 uM could now stimulate a robust response, similar quantitatively (and qualitatively) to concentrations 30-100 fold higher, when an intact epithelium was present.

[8] = 100 μM intraluminal, 5 experiments
[9] = intraluminal, 3, 10, 30 and 100 μM evaluated
[10] = single 200 mg capsule Day 1, empty stomach

## squalamine
[1]
  dose recovered from the stool: Approximately 80%
Mesenteric nerve; [8]
  latency to peak of the firing rate increase: 12 ± 7.5 min
  latency to the onset of the firing increase: 4.4 ± 4.1 min
Mesenteric nerve; 100 μM intraluminal, 5 experiments, background 2.0±1.2 Hz, P=0.03
  mesenteric nerve multiunit firing rate at peak response (mean±SD): 5.2±3.1 Hz
Mesenteric nerve; intraluminal squalamine
  effect on mesenteric nerve firing frequency (FIGS. 1A-1C): increases mesenteric nerve firing frequency
Mesenteric nerve; [9]
  concentration at which responses were discernible: 30 µM
  concentration at which robust and reproducible responses were first evident: 100 µM
[2]; 200 mg cap at 9:15 A on Day 3 of codeine 30 mg/acetaminophen 300 mg, no stool since start, stool at 11:15 A
  bowel response: passed a large soft, well formed stool with normal urgency; also recorded: A sense of bowel relief was appreciated
[2]; 200 mg cap at 9:15 A on Day 3 of codeine dosing
  nausea and rectal fluid: No nausea; also recorded: No clear rectal fluid
[3]; extensive studies in animals
  absorption from the gastrointestinal tract: neither squalamine nor Aminosterol 1436 can be absorbed to any extent
[3]
  oral bioavailability: low bioavailability
[3]; listed as squalamine lactate
  oral bioavailability: poorly bioavailable orally
[3]; rodents
  absorption by the subcutaneous and intraperitoneal routes: well absorbed
[4]; 25 mg capsule on Day 19
  response to 25 mg capsule: By Day 21 the previous symptoms of IBS were returning
[4]; 50 mg capsule on Day 15
  response to 50 mg capsule: Neither nausea nor a discharge was experienced; also recorded: Sense of bowel quiet was experienced
[4]; 50 mg orally every other day, at 10 months
  IBS status on maintenance dosing: no longer experiences symptoms of IBS; also recorded: Bowel movements are of normal consistency; also recorded: Sleep is no longer interrupted by urgency to defecate
[4]; [10]
  nausea had passed, time after dosing: ≤ 3.5 h
  volume of clear discharge passed rectally: about 200 ml
  vomiting, time after dosing: 3 h
[4]; single 200 mg capsule Day 1, empty stomach, person with mixed IBS
  nausea, time of onset after dosing: ≤ 2 h
[4]; single 200 mg capsule on Day 1
  first stool passed: Day 4
  period of bowel quiet without cramping or urgency: Day 1 through Day 5
  return of usual GI symptoms: Day 8
[5]; 50 mg/day (25 mg twice daily, powder in apple sauce), approximately 6 months
  tumor at surgical exploration of the peritoneum: No tumor was visible
[5]; daily treatment for 5 years
  recurrence: no recurrence of cancer
[6]
  increase of the frequency of contractions: about 2 fold
[6]; versus before application
  peak pressure of MMC waves: did not differ; also recorded: no apparent effect
[7]; epithelial lining peeled away
  lowest concentration stimulating a robust IPAN response: 1 µM
[7]; intact versus stripped epithelium
  fold higher concentrations needed for similar response when an intact epithelium was present: 30-100 fold
